Data from US9182402B2, “Hepsin inhibitors” (Fred Hutchinson Cancer Research Center, priority 2008, dated 2015).

How the values were obtained:
LNCaP cells = assay: Cell cytotoxicity assay (CellTiter-Glo, ATP-luciferase); conditions: 20 μM, 72 hours, compounds replenished daily
trypsin = trypsin (Sus scrofa (Pig), UniProt P00761); assay: Trypsin activity assay (chromogenic substrate); conditions: read-out: IC50 trypsin; 30 minutes preincubation at room temperature, substrate at Km
Procedure: (§3) Titration of the chromogenic substrate pryoGlu-Pro-Arg-pNA was performed for each enzyme and the resulting substrate-velocity data fit with nonlinear regression using GraphPad Prism 4 software (GraphPad, La Jolla, Calif.) to calculate Vmax and Km. […] The reactions were then followed using a kinetic microplate reader and the linear rates of increase in absorbance at 405 nm expressed as percent activity (100%×vi/vo). At least three independent experiments were performed for each enzyme. The IC50 was calculated by fitting the data to a four-parameter non-linear regression using GraphPad Prism 4.

thrombin = thrombin (Bos taurus (Bovine), UniProt P00735); assay: Thrombin activity assay (chromogenic substrate); assay type: biochemical; conditions: 30 minutes preincubation at room temperature, substrate at Km
Procedure: as §3

[1] = approximate value; cited from earlier work
HepG2 cells = assay: Cell cytotoxicity assay (CellTiter-Glo, ATP-luciferase); conditions: HepG2, 20 μM, 72 hours, compounds replenished daily
recombinant human hepsin [2] = target: recombinant human hepsin (Homo sapiens, UniProt P05981); assay: Hepsin activity assay (chromogenic substrate pyroGlu-Pro-Arg-pNA); assay type: biochemical; conditions: 30 minutes preincubation at room temperature, substrate at Km
recombinant human hepsin (Homo sapiens, UniProt P05981), sequence (P05981 1-162 limits assumed): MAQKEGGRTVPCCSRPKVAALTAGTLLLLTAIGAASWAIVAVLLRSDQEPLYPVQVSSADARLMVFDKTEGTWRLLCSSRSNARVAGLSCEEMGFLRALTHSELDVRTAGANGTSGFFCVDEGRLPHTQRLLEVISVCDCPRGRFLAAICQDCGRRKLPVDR
recombinant human hepsin (Homo sapiens, UniProt P05981), sequence (P05981 163-417 limits assumed): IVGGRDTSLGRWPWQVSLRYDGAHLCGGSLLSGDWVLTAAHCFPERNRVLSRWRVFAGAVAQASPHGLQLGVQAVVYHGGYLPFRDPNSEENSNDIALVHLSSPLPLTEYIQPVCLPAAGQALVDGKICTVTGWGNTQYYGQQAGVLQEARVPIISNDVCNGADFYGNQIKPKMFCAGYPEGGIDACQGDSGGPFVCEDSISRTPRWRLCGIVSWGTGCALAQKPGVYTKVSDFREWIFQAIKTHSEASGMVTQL
Procedure: (§1) D. Hepsin, Trypsin and Thrombin Activity Assays.
(§2) Purified recombinant hepsin was preincubated with indicated compounds for 30 minutes at room temperature.

[3] = tested on: MP-1 mouse prostate epithelial cell line; assay: Cell cytotoxicity assay (CellTiter-Glo, ATP-luciferase); conditions: MP-1, 20 μM, 72 hours, compounds replenished daily
[4] = target: full-length wild-type murine hepsin expressed in HEK 293FT cells (Mus musculus (Mouse), UniProt O35453); assay: Hepsin-dependent pericellular serine proteolytic activity assay; assay type: cell-based; conditions: overnight incubation; for pericellular proteolytic activity (in words): 20 and 50 μM; for attenuation of hepsin-dependent pericellular proteolytic activity: 50 μM, activity/expression level relative to vehicle
full-length wild-type murine hepsin expressed in HEK 293FT cells, sequence (O35453 other isoform, or with tags, fused parts or gaps): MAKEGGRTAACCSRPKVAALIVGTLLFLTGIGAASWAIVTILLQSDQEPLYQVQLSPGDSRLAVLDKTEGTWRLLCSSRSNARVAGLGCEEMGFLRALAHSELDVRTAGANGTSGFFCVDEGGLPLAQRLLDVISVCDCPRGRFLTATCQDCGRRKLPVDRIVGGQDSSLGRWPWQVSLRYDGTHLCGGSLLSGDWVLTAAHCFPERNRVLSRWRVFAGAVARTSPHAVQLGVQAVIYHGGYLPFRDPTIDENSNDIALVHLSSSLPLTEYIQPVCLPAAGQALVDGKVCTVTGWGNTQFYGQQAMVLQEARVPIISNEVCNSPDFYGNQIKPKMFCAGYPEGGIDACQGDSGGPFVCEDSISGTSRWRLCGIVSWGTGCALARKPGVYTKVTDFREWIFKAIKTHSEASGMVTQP
Procedure: Loading was verified via immunoblot against β-actin.
G. Pericellular Serine Proteolytic Activity Assay. […] After 3.5 hrs, transfection media was replaced with fresh media containing 20 μM or 50 μM of test compounds or solvent control (0.5% DMSO in media) and cells incubated overnight. Attached cell monolayers were then washed twice with PBS and once with assay buffer (5% CO2 equilibrated phenol-red free DMEM with 1% BSA) to remove residual serum proteases/inhibitors. Cells were then incubated in assay buffer containing 20 or 50 μM compounds for 30 minutes at 37° C. […] Percent inhibition was calculated as residual activity relative to solvent control. Matched samples were used in parallel to determine toxicity of the test compounds to HEK 293FT cells in this system using the CellTiter-Glo™ assay.
D. Inhibition of Hepsin-Dependent Pericellular Proteolytic Activity. To determine whether the identified compounds were able to inhibit cell-based hepsin activity, an assay was devised to measure hepsin-dependent pericellular serine proteolytic activity (FIG. 5A) (Raynaud et al., 1992 J Cell Physiol 151:378; Bauvois et al., 1990 Eur. J. Immunol. 20:459; Bauvois et al., 1992 Eur. J. Immunol. 22:923; Sameni et al., 2000 Neoplasia 2:496; McGowen et al., 2000 Canc. Res. 60:4771). […] Attached cell monolayers were incubated in assay buffer with peptide substrate and the reactions were allowed to proceed at 37° C. […] Activity levels were adjusted by altering hepsin expression levels to within the linear range of detection. A positive linear rate of activity was observed only for wild-type hepsin-expressing cells and was abolished in the presence of the broad spectrum serine protease inhibitor PEFAbloc.

HEK 293FT cells = assay: Toxicity to HEK 293FT cells in the pericellular protease assay system (CellTiter-Glo); assay type: cell-based; conditions: 50 μM, 24-hour treatment
Procedure: The chromogenic serine protease substrate pyroglutamyl-L-prolyl-L-argininne-p-nitroaniline hydrochloride (pyrGlu-Pro-Arg-pNA) was then added to the media. […] (FIG. 5B) Toxicity of the candidate hepsin inhibitor compounds over the course of the pericellular protease assay was evaluated by 24-hour treatment of cells with 20 μM (white bars) or 50 μM (black bars) compounds, relative to vehicle control. […] Puromycin at 5 μg/mL was used as a positive control.
G. Pericellular Serine Proteolytic Activity Assay. […] After 3.5 hrs, transfection media was replaced with fresh media containing 20 μM or 50 μM of test compounds or solvent control (0.5% DMSO in media) and cells incubated overnight. […] Percent inhibition was calculated as residual activity relative to solvent control. […]
To determine the potential cytotoxicity of the previously identified hepsin inhibitors in this model system, HEK 293FT cells were incubated under identical conditions with 20 and 50 μM of the compounds and cytotoxicity was determined using the ATP-luciferase coupled assay as described above (FIG. 5B). […] The remaining compounds at 20 and 50 μM final concentration were incubated overnight with hepsin expressing cells and pericellular proteolytic activity was determined as described above (FIG. 6).

recombinant human hepsin [5] = assay: Hepsin activity assay (chromogenic substrate pyroGlu-Pro-Arg-pNA); assay type: biochemical; conditions: hepsin relative to trypsin and thrombin
Procedure: as §1, §2

hepsin = hepsin (Mus musculus (Mouse), UniProt O35453); assay: Immunoblot of hepsin expression levels in compound treated HEK 293FT cells; conditions: 20 and 50 μM, 24 hours
Procedure: The membrane was blocked overnight in TBST buffer containing: 5% non-fat milk, 2% normal goat serum in 50 mM Tris-HCl, pH 8.0, 100 mM NaCl, 0.1% Tween-20. The membrane was then incubated in 3% BSA in TBST with polyclonal anti-hepsin antibody (1:1000) for two hours at room temperature, washed 3×5 minutes with TBST and incubated for one hour in 0.1% BSA in TBST containing goat-anti-rabbit-HRP secondary antibody (1:2000), washed 3×5 minutes in TBST and developed with ECL (Pierce Chemicals, Rockford, Ill.). […] Expression levels were quantified by densitometry using ImageQuantTL™ (GE Healthcare Life Sciences, Piscataway, N.J.).
As treatment with chemical compounds may alter hepsin expression level (and thereby impact pericellular proteolytic activity), hepsin levels in drug-treated cells were determined via immunoblotting (FIG. 6B).

trypsin, sequence (P00761 9-231): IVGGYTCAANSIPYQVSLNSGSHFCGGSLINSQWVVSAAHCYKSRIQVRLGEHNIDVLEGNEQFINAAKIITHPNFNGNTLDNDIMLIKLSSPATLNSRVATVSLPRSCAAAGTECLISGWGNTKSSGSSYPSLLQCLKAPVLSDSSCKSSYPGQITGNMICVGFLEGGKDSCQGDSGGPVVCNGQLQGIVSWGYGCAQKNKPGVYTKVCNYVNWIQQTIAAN

SMILES: CC(C)(Sc1cc(C(C)(C)C)c(O)c(C(C)(C)C)c1)Sc1cc(C(C)(C)C)c(O)c(C(C)(C)C)c1 [Compound 14, 4,4′-[propane-2,2-diylbis(sulfanediyl)]bis(2,6-di-tert-butylphenol), reference compound]
- cellular toxicity (cell viability) (LNCaP cells): limited or no cytotoxicity
- IC50 (trypsin): 33500 ± 11500 nM
- IC50 (thrombin): > 20000 nM
- logP [1]: ~10
- cellular toxicity (cell viability) (HepG2 cells): limited or no cytotoxicity
- IC50 (recombinant human hepsin [2]): 430 ± 50 nM
- cellular toxicity (cell viability) [3]: limited or no cytotoxicity
- pericellular proteolytic activity (in words) [4]: not have shown an ability to reduce pericellular serine protease activity

SMILES: O=C1c2c(O)cccc2Cc2cccc(O)c21 [Compound 15, 1,8-dihydroxyanthracen-9(10H)-one, reference compound]
- cellular toxicity (cell viability) (LNCaP cells): toxic
- IC50 (trypsin): 1260 ± 300 nM
- IC50 (thrombin): > 20000 nM
- cellular toxicity (cell viability) (HepG2 cells): toxic
- IC50 (recombinant human hepsin [2]): 230 ± 50 nM
- cellular toxicity (cell viability) [3]: toxic
- cytotoxicity to HEK 293FT cells (HEK 293FT cells): substantial toxicity

SMILES: Cc1cccc(CN2CCN(C(c3ccccc3)c3ccc(Cl)cc3)CC2)c1 (stereo not drawn) [Compound 13, 1-[(4-chlorophenyl)(phenyl)methyl]-4-(3-methylbenzyl)piperazine, reference compound]
- cellular toxicity (cell viability) (LNCaP cells): limited or no cytotoxicity
- IC50 (trypsin): > 20000 nM
- IC50 (thrombin): > 20000 nM
- cellular toxicity (cell viability) (HepG2 cells): limited or no cytotoxicity
- specificity for hepsin (recombinant human hepsin [5]): > 10 fold
- IC50 (recombinant human hepsin [2]): 2020 ± 370 nM
- hepsin expression levels (hepsin): without substantially affecting hepsin expression levels
- cellular toxicity (cell viability) [3]: limited or no cytotoxicity
- attenuation of hepsin-dependent pericellular proteolytic activity [4]: ~25%
- attenuation of hepsin-dependent pericellular proteolytic activity ([4]; listed as Meclizine): 30%
- pericellular proteolytic activity (in words) [4]: attenuated pericellular proteolytic activity in a dose dependent manner

SMILES: O=C(Nc1ccc(-c2nc3ccccc3o2)c(O)c1)c1ccc(-c2cccc([N+](=O)[O-])c2)o1 [Compound 12, N-[4-(1,3-benzoxazol-2-yl)-3-hydroxyphenyl]-5-(3-nitrophenyl)-2-furamide]
- cellular toxicity (cell viability) (LNCaP cells): substantially toxic
- IC50 (trypsin): 3500 ± 670 nM
- IC50 (thrombin): > 20000 nM
- cellular toxicity (cell viability) (HepG2 cells): without affecting
- IC50 (recombinant human hepsin [2]): 330 ± 70 nM
- cellular toxicity (cell viability) [3]: substantially toxic
- cytotoxicity to HEK 293FT cells (HEK 293FT cells): substantial toxicity
